Measurements published in patent US8835134B2, “Cycloastragenol monoglucoside, preparation, pharmaceutical composition and application thereof” (Tianjin Institute of Pharmaceutical Research, priority 2007, dated 2014).

Tested on: anesthetized open-chest dogs
Assay: Hemodynamics of anesthetized open-chest dogs, intravenous infusion
Format: in vivo, mongrel dogs
Protocol: The animals were anesthetized by intravenous injection of 30 mg/kg sodium pentobarbital, tracheally intubated, and mechanically ventilated with positive air pressure. Left thoracotomy was performed through the fourth intercostal space and the heart was suspended in a pericardial cradle, the aortic root was isolated and a probe of blood flow meter (12 or 14 mm in diameter) was fixed to measure the aortic blood flow as a representation of cardiac output (CO), the circumflex branch of left coronary artery was isolated and a probe of blood flow meter (2 or 2.5 mm in diameter) was fixed to measure the coronary blood flow (CBF). A polyethylene catheter filled with heparin physiological saline was inserted through cardiac apex into the left ventricle to measure the left ventricular pressure (LVP) and left ventricular end-diastolic pressure (LVEDP), Peak positive and peak negative first derivatives of the LVP (+ LVdp/dt and − LVdp/dt) were calculated with the Acknowledge software. The systolic blood pressure (SBP), diastolic blood pressure (DBP) and mean arterial pressure (MAP) were measured by polyethylene catheter via the femoral artery, ECG □ was measured by a AC-601G ECG amplifier. The above-mentioned analog signal was input into a data acquisition workstation (MP100, BIOPAC Systems, USA) to a computer running Acknowledge (version 3.7.1).
After surgery, various indexes before administration were recorded until the indexes were stable, and then intravenous infusion administration was conducted. Thirty dogs were divided into five groups (six dogs in each group), the experiment groups were given 0.15, 0.3, 0.6 mg/kg of ASP-[…] respectively, the normal control group was given 1 ml/kg of solvent, and the positive control group was given 0.3 mg/kg of astragaloside IV. The delivery volumes were 15 ml for each dog was and the delivery velocity was 1 ml/min. The indexes were recorded at 5, 10, 15, 20, 30, 45, 60, 90 and 120 mins after drug administration. At the end of experiment, the hearts were excised and weighted. The myocardial blood flow for per hectogram (CF), coronary resistance (CR), cardiac index (CI), left ventricular work (LVW) and total peripheral resistance (TPR) were calculated according to the following formulae: CF=CBF×[…]/heart weight CR=MAP/CF CI=CO/0.11×(body weight)^2/3 LVW=CO×(MAP−5)×1.052×0.0136 TPR=MAP×79.92/CO
Data are expressed as mean±SD ( x±s), the paired t-test was used to compare the significance between before and after administration, the unpaired t-test was adopted for comparison between groups.

[1] = 0.6 mg/kg iv, 15 min after administration
[2] = 0.6 mg/kg iv, 20 min after administration
[3] = 0.6 mg/kg iv, 30 min after administration
[4] = 0.6 mg/kg iv, 45 min after administration
[5] = 0.6 mg/kg iv, 60 min after administration
[6] = 0.6 mg/kg iv, 90 min after administration
[7] = 0.6 mg/kg iv, 120 min after administration
[8] = 0.6 mg/kg iv, before administration
[9] = 0.15, 0.3 and 0.6 mg/kg iv, within 120 min

Structure (SMILES): CC(C)(O)[C@@H]1CC[C@](C)([C@H]2[C@@H](O)C[C@@]3(C)C4C[C@H](OC5OC(CO)C(O)C(O)C5O)C5C(C)(C)[C@@H](O)CC[C@@]56C[C@@]46CC[C@]23C)O1 (stereo partly drawn) [CMG, Cycloastragenol-6-O-β-D-glucoside]
- LVW change vs before administration [1]: (0.06 ± 0.13) kg · m
- TPR [1]: 5249 ± 2234 dyn · s/cm^5
- TPR change vs before administration [1]: (−258 ± 392) dyn · s/cm^5
- dp/dt [1]: 1199 ± 288 mmHg/s
- dp/dt change vs before administration [1]: (95 ± 56) mmHg/s
- −dp/dt [1]: −851 ± 196 mmHg/s
- −dp/dt change vs before administration [1]: (2 ± 98) mmHg/s
- CF [2]: 49.8 ± 8.0 ml/min/100 g
- CF change vs before administration [2]: (−1.4 ± 1.4) ml/min/100 g
- CI [2]: 2.05 ± 0.41 L/min/m^2
- CI change vs before administration [2]: (0.09 ± 0.18) L/min/m^2
- CO [2]: 1.19 ± 0.34 L/min
- CO change vs before administration [2]: (0.05 ± 0.10) L/min
- CR [2]: 1.48 ± 0.36 mmHg/ml/min/100 g
- CR change vs before administration [2]: (0.06 ± 0.10) mmHg/ml/min/100 g
- LVEDP [2]: 1.2 ± 1.6 mmHg
- LVEDP change vs before administration [2]: (−1.5 ± 0.54) mmHg
- LVP [2]: 107 ± 17 mmHg
- LVP change vs before administration [2]: (0.4 ± 3.9) mmHg
- LVW [2]: 1.13 ± 0.35 kg · m
- LVW change vs before administration [2]: (0.06 ± 0.17) kg · m
- TPR [2]: 5176 ± 1818 dyn · s/cm^5
- TPR change vs before administration [2]: (−331 ± 534) dyn · s/cm^5
- dp/dt [2]: 1276 ± 339 mmHg/s
- dp/dt change vs before administration [2]: (172 ± 151) mmHg/s
- −dp/dt [2]: −842 ± 220 mmHg/s
- −dp/dt change vs before administration [2]: (10 ± 91) mmHg/s
- CF [3]: 50.7 ± 8.5 ml/min/100 g
- CF change vs before administration [3]: (−0.5 ± 4.0) ml/min/100 g
- CI [3]: 2.05 ± 0.57 L/min/m^2
- CI change vs before administration [3]: (0.09 ± 0.12) L/min/m^2
- CO [3]: 1.20 ± 0.43 L/min
- CO change vs before administration [3]: (0.05 ± 0.07) L/min
- CR [3]: 1.46 ± 0.38 mmHg/ml/min/100 g
- CR change vs before administration [3]: (0.04 ± 0.08) mmHg/ml/min/100 g
- LVEDP [3]: 1.3 ± 1.5 mmHg
- LVEDP change vs before administration [3]: (−1.4 ± 0.6) mmHg
- LVP [3]: 107 ± 17 mmHg
- LVP change vs before administration [3]: (0.9 ± 5.6) mmHg
- LVW [3]: 1.15 ± 0.45 kg · m
- LVW change vs before administration [3]: (0.07 ± 0.13) kg · m
- TPR [3]: 5406 ± 2485 dyn · s/cm^5
- TPR change vs before administration [3]: (−101 ± 366) dyn · s/cm^5
- dp/dt [3]: 1232 ± 274 mmHg/s
- dp/dt change vs before administration [3]: (128 ± 108) mmHg/s
- −dp/dt [3]: −833 ± 243 mmHg/s
- −dp/dt change vs before administration [3]: (20 ± 96) mmHg/s
- CF [4]: 50.4 ± 7.8 ml/min/100 g
- CF change vs before administration [4]: (−0.8 ± 4.7) ml/min/100 g
- CI [4]: 1.97 ± 0.30 L/min/m^2
- CI change vs before administration [4]: (0.01 ± 0.26) L/min/m^2
- CO [4]: 1.15 ± 0.27 L/min
- CO change vs before administration [4]: (0.00 ± 0.15) L/min
- CR [4]: 1.48 ± 0.35 mmHg/ml/min/100 g
- CR change vs before administration [4]: (0.06 ± 0.16) mmHg/ml/min/100 g
- LVEDP [4]: 1.3 ± 1.7 mmHg
- LVEDP change vs before administration [4]: (−1.41 ± 0.81) mmHg
- LVP [4]: 106 ± 16 mmHg
- LVP change vs before administration [4]: (0.2 ± 5.2) mmHg
- LVW [4]: 1.1 ± 0.29 kg · m
- LVW change vs before administration [4]: (0.03 ± 0.23) kg · m
- TPR [4]: 5337 ± 1723 dyn · s/cm^5
- TPR change vs before administration [4]: (−170 ± 595) dyn · s/cm^5
- dp/dt [4]: 1181 ± 320 mmHg/s
- dp/dt change vs before administration [4]: (77 ± 53) mmHg/s
- −dp/dt [4]: −842 ± 170 mmHg/s
- −dp/dt change vs before administration [4]: (10 ± 126) mmHg/s
- CF [5]: 50.2 ± 11.6 ml/min/100 g
- CF change vs before administration [5]: (−1.0 ± 6.9) ml/min/100 g
- CI [5]: 2.04 ± 0.36 L/min/m^2
- CI change vs before administration [5]: (0.08 ± 0.24) L/min/m^2
- CO [5]: 1.19 ± 0.32 L/min
- CO change vs before administration [5]: (0.04 ± 0.13) L/min
- CR [5]: 1.53 ± 0.47 mmHg/ml/min/100 g
- CR change vs before administration [5]: (0.11 ± 0.26) mmHg/ml/min/100 g
- LVEDP [5]: 1.6 ± 1.6 mmHg
- LVEDP change vs before administration [5]: (−1.05 ± 0.76) mmHg
- LVP [5]: 105 ± 14 mmHg
- LVP change vs before administration [5]: (−0.8 ± 7.7) mmHg
- LVW [5]: 1.17 ± 0.40 kg · m
- LVW change vs before administration [5]: (0.10 ± 0.20) kg · m
- TPR [5]: 5170 ± 1416 dyn · s/cm^5
- TPR change vs before administration [5]: (−336 ± 1012) dyn · s/cm^5
- dp/dt [5]: 1199 ± 294 mmHg/s
- dp/dt change vs before administration [5]: (95 ± 76) mmHg/s
- −dp/dt [5]: −829 ± 157 mmHg/s
- −dp/dt change vs before administration [5]: (24 ± 167) mmHg/s
- CF [6]: 48.6 ± 7.2 ml/min/100 g
- CF change vs before administration [6]: (−2.6 ± 2.8) ml/min/100 g
- CI [6]: 2.09 ± 0.53 L/min/m^2
- CI change vs before administration [6]: (0.13 ± 0.20) L/min/m^2
- CO [6]: 1.22 ± 0.40 L/min
- CO change vs before administration [6]: (0.07 ± 0.12) L/min
- CR [6]: 1.52 ± 0.37 mmHg/ml/min/100 g
- CR change vs before administration [6]: (0.11 ± 0.12) mmHg/ml/min/100 g
- LVEDP [6]: 1.3 ± 1.4 mmHg
- LVEDP change vs before administration [6]: (−1.35 ± 0.72) mmHg
- LVP [6]: 105 ± 12 mmHg
- LVP change vs before administration [6]: (−1.3 ± 6.7) mmHg
- LVW [6]: 1.17 ± 0.44 kg · m
- LVW change vs before administration [6]: (0.10 ± 0.11) kg · m
- TPR [6]: 5285 ± 2431 dyn · s/cm^5
- TPR change vs before administration [6]: (−222 ± 606) dyn · s/cm^5
- dp/dt [6]: 1152 ± 313 mmHg/s
- dp/dt change vs before administration [6]: (48 ± 63) mmHg/s
- −dp/dt [6]: −815 ± 238 mmHg/s
- −dp/dt change vs before administration [6]: (37 ± 55) mmHg/s
- CF [7]: 49.3 ± 7.3 ml/min/100 g
- CF change vs before administration [7]: (−1.9 ± 5.0) ml/min/100 g
- CI [7]: 2.07 ± 0.47 L/min/m^2
- CI change vs before administration [7]: (0.11 ± 0.22) L/min/m^2
- CO [7]: 1.21 ± 0.38 L/min
- CO change vs before administration [7]: (0.06 ± 0.13) L/min
- CR [7]: 1.42 ± 0.27 mmHg/ml/min/100 g
- CR change vs before administration [7]: (0.00 ± 0.17) mmHg/ml/min/100 g
- LVEDP [7]: 2.0 ± 1.2 mmHg
- LVEDP change vs before administration [7]: (−0.73 ± 0.52) mmHg
- LVP [7]: 102 ± 17 mmHg
- LVP change vs before administration [7]: (−4.4 ± 5.9) mmHg
- LVW [7]: 1.12 ± 0.42 kg · m
- LVW change vs before administration [7]: (0.04 ± 0.18) kg · m
- TPR [7]: 4925 ± 1674 dyn · s/cm^5
- TPR change vs before administration [7]: (−582 ± 764) dyn · s/cm^5
- dp/dt [7]: 1078 ± 283 mmHg/s
- dp/dt change vs before administration [7]: (−25 ± 109) mmHg/s
- −dp/dt [7]: −789 ± 269 mmHg/s
- −dp/dt change vs before administration [7]: (64 ± 63) mmHg/s
- +LVdp/dtmax maximum increase (0.6 mg/kg iv, at 5-10 min after administration): 22.6±11.8%
- CF [8]: 51.2 ± 8.0 ml/min/100 g
- CI [8]: 1.96 ± 0.54 L/min/m^2
- CO [8]: 1.15 ± 0.40 L/min
- CR [8]: 1.41 ± 0.35 mmHg/ml/min/100 g
- LVEDP [8]: 2.7 ± 1.3 mmHg
- LVP [8]: 106 ± 16 mmHg
- LVW [8]: 1.08 ± 0.41 kg · m
- TPR [8]: 5507 ± 2267 dyn · s/cm^5
- dp/dt [8]: 1104 ± 295 mmHg/s
- −dp/dt [8]: −852 ± 244 mmHg/s
- duration of LVEDP decrease (0.15, 0.3 and 0.6 mg/kg iv): more than 2 hours
- left ventricular work (LVW) (0.15, 0.3 and 0.6 mg/kg iv): no significant change
- CF and CR [9]: no significant changes
- CO and CI [9]: no significant changes
- SBP, DBP, MAP and HR [9]: no significant changes
- left ventricular pressure (LVP) [9]: no significant change
- total peripheral resistance (TPR) [9]: no significant change
- −LVdp/dtmax (0.3 and 0.6 mg/kg iv): no significant effect
